Laboratory results from PMC11480411, “Mucosal sugars delineate pyrazine vs pyrazinone autoinducer signaling in Klebsiella oxytoca” (Nature Communications, 2024).

System: leup operon (leupeptin BGC) promoter in K. oxytoca ATCC 8724
Assay: GFP-based transcriptional reporter for the leup operon
Format: cell-based, Klebsiella oxytoca
Settings: carbohydrate screen, M9 + casamino acid + 0.4% indicated sugar, 30 °C, 24 h; for GFP fluorescence, GFP Strain + Media: leup GFP reporter strain; for GFP fluorescence, WT + Media: wildtype K. oxytoca without reporter (background)
Excerpt: We previously examined a panel of 84 clinical K. oxytoca isolates (including recently renamed Klebsiella michiganensis isolates) for the presence of either the leup operon or npsB, an NRPS of the tilimycin/tilivalline gene cluster. […] While the roles of tilivalline and tilimycin in hemorrhagic colitis are well studied[8],[9], the operon for leupeptin biosynthesis is “silent” in K. oxytoca under typical laboratory culture conditions (i.e., leupeptin production is undetectable). Therefore, our study commenced by exploring growth conditions required to trigger leupeptin biosynthesis in K. oxytoca. To achieve this, we generated a green fluorescent protein (GFP)-based reporter system to monitor leup transcription in K. oxytoca ATCC 8724 (recently renamed as Klebsiella michiganensis (ATCC 8724), Fig. 1a). We utilized λ-red recombineering techniques[38] to replace the first biosynthetic gene (leupA) of the leupeptin BGC with a GFP-spectinomycin resistance cassette. […] Consequently, conditions that elicit transcription of the leupeptin BGC can be monitored by GFP fluorescence intensity.
5 mL of the leupeptin reporter strain was cultured aerobically in 10 g/L of LB (Becton Dickinson), yeast extract, GAM (HiMedia Laboratories), horse liver extract (HiMedia Laboratories), malt extract (VWR), meat extract (HiMedia Laboratories), YPD (Dot Scienticifc), brain heart infusion (Becton Dickinson), porcine mucin (Sigma-Aldrich, M1778), clostridial (Becton Dickinson), TSB (VWR), or casamino acid supplemented (5 g/L, VWR) M9 minimal salts (MP Biomedicals) at 30 °C for 24 h at 250 rpm. Cultures were lysed via sonication, centrifuged, and 150 µL of the supernatants were aliquoted into black well clear bottom 96 well plates. GFP fluorescence measurements were performed on a BioTek Synergy H1 plate reader with an excitation wavelength of 488 nm and an emission wavelength of 525 nm. For the carbohydrate screen, the leupeptin reporter strain was cultured in M9 minimal medium (MPbio) supplemented with casamino acid (5 g/L, VWR) and 0.4% indicated sugar aerobically at 30 °C for 24 h at 250 rpm.

Row | Structure (SMILES) | GFP fluorescence, GFP Strain + Media [RFU] | GFP fluorescence, WT + Media [RFU]
1 | O[C@@H]1[C@@H](O)[C@@H](O)CO[C@H]1O [Arabinose] | 9484 | 6365
2 | OC[C@H]1O[C@@H](O[C@H]2[C@H](O)[C@@H](O)C(O)O[C@@H]2CO)[C@H](O)[C@@H](O)[C@H]1O (mixture of isomers) [Lactose] | 5276 | 4982
3 | OC[C@H]1OC(O)[C@H](O)[C@@H](O)[C@@H]1O (stereo partly drawn) [Glucose] | 9593 | 8596
4 | CC(=O)N[C@@H]1[C@@H](O)[C@H](O)[C@@H](CO)O[C@H]1O [GlcNAc] | 9678 | 5235
5 | CC(=O)N[C@H]1C(O)O[C@H](CO)[C@H](O)[C@@H]1O (stereo partly drawn) [GalNAc] | 9643 | 8779
6 | OC[C@@H](O)[C@@H](O)[C@H](O)[C@@H](O)CO [Sorbital] | 10051 | 6226
